Laboratory results reported in publication PMC11277004, “Di- and Triselenoesters—Promising Drug Candidates for the Future Therapy of Triple-Negative Breast Cancer” (International Journal of Molecular Sciences, 2024).

Legend:
Assay type in all cases: cell-based, human
[1] = Viability (MTT) and DNA biosynthesis, summary statements over the tested cell lines; conditions: human; MTT, 24 h; range over the tested cell lines; read-out: IC50, cytotoxic activity (range over cell lines)
Experimental: The MTT assay was used to determine the cytotoxic effects of the compounds in the study on MCF-7 and MDA-MB-231 breast cancer cells as well as MCF-10A normal human breast epithelial cells based on Carmichael’s method. All cultured cell lines were treated with varied concentrations of the tested compounds in the medium (0.5–5 µM) and incubated for 24 h in an incubator providing optimal conditions for cell culture growth (37 °C temperature, 5% CO2, and 90–95% humidity) in 6-well plates (baseline seeding density: 5 × 10^5 cells/well). After this time, the medium was removed, and the cell monolayer was washed with warm phosphate-buffered saline (PBS) without calcium and magnesium. In the next step, PBS and MTT solution in PBS (5 mg/mL) were added to each well to obtain a final MTT concentration of 0.5 mg/mL, and then the cells were incubated for 4 h (37 °C temperature, 5% CO2, 90–95% humidity). After the incubation period, the contents of each well were removed, 1 mL of DMSO was added to dissolve the formazan, and then the plate with the added DMSO was mixed for 5–10 min on a microplate shaker (Boeco, Hamburg, Germany). Then, 10 µL of Sorensen’s glycine buffer (a solution of 0.1 M glycine and 0.1 M sodium chloride adjusted to pH 10.5 with 0.1 M sodium hydroxide) was added. The absorbance of the obtained solution was immediately measured at a wavelength of λ = 570 nm using a Thermo Scientific Evolution 201 UV–VIS spectrophotometer (Thermo Fisher Scientific, Waltham, MA, USA). The absorbance result obtained in the control cells (without the addition of the tested compounds) was taken as 100%, while the viability of cells incubated with the tested compounds was presented as a percentage of the control value.
The study of the antiproliferative properties (intensity of [^3H]-thymidine incorporation into cell DNA) of the tested derivatives against tested cell lines (MCF-7, MDA-MB-231, MCF-10A) was performed after 24 h incubation with varied concentrations of the tested compounds in the medium (0.5–5 µM) in 6-well plates (baseline seeding density: 5 × 10^5 cells/well). After 24 h the medium was removed, the cells were washed with PBS (Corning, Kennebunk, ME, USA), and a fresh medium was added. […] Radioactivity was measured using the Scintillation Counter 1900 TR, TRI-CARB (Packard, Perkin Elmer, Inc., San Jose, CA, USA). The intensity of DNA biosynthesis in the analyzed cells was expressed in terms of dpm/well. The result of the radioactivity measurement in the control cells (without the addition of tested compounds) was taken as 100%, while the values of cells incubated with the tested compounds were presented as a percentage of the control value.

[2] = system: MCF-7 and MDA-MB-231 breast cancer cells; test: Autophagy induction, summary statement over cell lines; conditions: vs EDAG-8; 0.5 and 1 µM, 24 h
Experimental: The effects of the novel selenoesters and a reference compound (cisplatin) at concentrations of 0.5 and 1 µM (after 24 h) on the activation of the autophagy process in MCF-7, MDA-MB-231, and MCF-10A cells were evaluated utilizing the Autophagy Assay kit, Red (ImmunoChemistry Technologies, Bloomington, MN, USA) via flow cytometry (flow cytometer from BD FACSCanto II, BD Biosciences Systems, San Jose, CA, USA). The entire assay was performed according to the manufacturer’s instructions. After drug treatment, unfixed cells were washed and resuspended in PBS at a concentration of 5 × 10^5 cells/mL. Then, 490 µL each of the cell suspension was taken, transferred to test tubes, and 10 µL of Autophagy Probe, Red solution (previously diluted 1:5 in PBS) was added and incubated (30 min, 37 °C, in the dark). After incubation, the cells were washed and resuspended in cellular assay buffer, before finally adding fixative at a ratio of 1:5 (v/v). After this step, the prepared samples were immediately measured using a flow cytometer (BD FACSCanto II; 10,000 events measured), and the percentage of cells with an occurring autophagy process was calculated using the FACSDiva 6.0 software (both from BD Biosciences Systems, San Jose, CA, USA). The equipment calibration was performed using the BD Cytometer Setup and Tracking Beads (BD Biosciences, San Diego, CA, USA).

[3] = system: MCF-10A normal breast epithelial cells; test: Apoptosis induction, annexin V-FITC/PI flow cytometry, MCF-10A; conditions: especially at 1 µM, 24 h
Experimental: The FITC Annexin V Apoptosis Detection Kit II (BD Pharmingen, San Diego, CA, USA) and a flow cytometer (BD FACSCanto II, BD Biosciences Systems, San Jose, CA, USA) were used in this evaluation. The assay was performed according to the manufacturer’s instructions. Flow cytometer calibration was performed by preparing two controls—a positive and a negative control. […] The negative control was cells that were not treated with any of the proapoptotic agents. First, in the cells treated with the tested compounds as well as the controls, the medium was removed, and the cells were washed twice with cold PBS. Subsequently, the cells were resuspended in the binding buffer included in the kit at a concentration of 1 × 10^6 cells/mL. From each sample, 100 µL of cell suspension was taken and transferred to test tubes, to which 5 µL each of FITC annexin V and propidium iodide (PI) were then added. The contents of the test tubes were gently vortexed and incubated for 15 min at room temperature, protected from light. After the required time, the contents of the test tubes were made up to 500 µL with binding buffer and immediately analyzed in a flow cytometer (10,000 events measured). After the flow cytometer readout, the results were analyzed using the FACSDiva 6.0 software (BD Biosciences Systems, San Jose, CA, USA). […]

Compound | IC50 at 24 h [1] [nM] | fold weaker pro-autophagic activity compared to the most active derivative [2] | necrotic cells (in words) [3]
CC(=O)C[Se]C(=O)c1ccc(C(=O)[Se]CC(C)=O)cc1 [EDAG-1, Se,Se-bis(2-oxopropyl) benzene-1,4-bis(carboselenoate)] | 410 to 710 | approximately 2 fold | –
CC(=O)C[Se]C(=O)c1cc(C(=O)[Se]CC(C)=O)cc(C(=O)[Se]CC(C)=O)c1 [EDAG-8, Se,Se,Se-tris-(2-oxopropyl) benzene-1,3,5-tris-(carboxyselenoate)] | 410 to 710 | – | increase in the number of necrotic cells
